One block for each compound: values may come before it.
Legend:
[1] = Example 3: pharmacokinetic drug-drug interaction of tipranavir 1200 mg BID and delavirdine 400 mg TID, plasma levels by HPLC
Description: Baseline pharmacokinetic data for each drug were obtained under pharmacokinetic steady-state conditions following 7 days of dosing. Each drug was then co-administered for 10 days, at which time the pharmacokinetics of each was re-evaluated and compared with baseline data. […] All subjects were Caucasian. […] Pharmacokinetic analyses were based on results obtained in these subjects.
Detection was by UV absorbance at 260 nm.
Plasma samples were assayed for delavirdine concentrations using a validated, sensitive and specific isocratic high performance liquid chromatographic (HPLC) method: one for the upper concentration range, and one for the lower concentration range. […] The supernatant was mixed with buffer and directly injected. Chromatographic separation was achieved using a Brownlee cyano guard column and an analytical column, DuPont Zorbax® SB CN.
Treatment effects on pharmacokinetic parameters were assessed using Wilcoxon's Signed Rank Test.

[2] = Study 2: pharmacokinetic drug-drug interaction of tipranavir 600 or 900 mg BID and ritonavir 100-500 mg BID, plasma levels by HPLC; assay type: in vivo, human; settings: for CLPO / Cmin / Css / AUC / Cmax / Tmax: median (range); for half-life / AUC / Cmax / Tmax: both sexes, human, plasma, oral; for half-life: harmonic mean (range), read-out: t½ (converted)
Description: Both groups received their assigned dose of tipranavir continuously throughout the study period. […] The pharmacokinetics of tipranavir when coadministered with ritonavir were evaluated and compared with baseline data, while the ritonavir data were compared to historical data. The study was conducted in 19 healthy volunteers (16 males and 3 females) with a mean age of 30 years (range, 19-52 years), height of 177.1 cm (range, 162.6-190.5 cm), and weight of 76.7 kg (range, 57.3-95.0 kg). Eighteen subjects were Caucasian […]. […] Pharmacokinetic analyses were based on those subjects completing the baseline evaluation and at least one period of concomitant drug administration. […] Detection was by UV absorbance at 260 nm. […] Ritonavir and the internal standard (IS) were extracted from human plasma by liquid-liquid extraction with an ethyl acetate mixture.

[3] = Example 4: pharmacokinetic drug-drug interaction of tipranavir SEDDS 1250 mg BID and ritonavir oral solution 200 mg BID; assay type: in vivo, human; settings: for CLPO / Cmin / Css: median (range)
[4] = Study 1: pharmacokinetic drug-drug interaction of tipranavir 1350 mg BID and ritonavir 500 mg BID, plasma levels by HPLC; assay type: in vivo, human; settings: for CLPO / Cmin / Css: median (range), n=10
Excerpt: Twelve subjects were Caucasian and two were of African descent. Ten subjects completed all aspects of the study. Pharmacokinetic analyses were based on the results obtained in these subjects. […] Detection was by UV absorbance at 260 nm. […] Ritonavir and the internal standard (IS) were extracted from human plasma by liquid-liquid extraction with an ethyl acetate mixture.

[5] = Table 1: tipranavir drug-drug interaction potential and routes of elimination of antiretrovirals; settings: drug-drug interaction with tipranavir
[6] = Tipranavir 600 mg BID + RTV 100 mg BID, n=7
[7] = Tipranavir 600 mg BID + RTV 500 mg BID, n=7
[8] = Tipranavir 600 mg BID alone, n=7
[9] = Tipranavir 900 mg BID + RTV 100 mg BID, n=6
[10] = Tipranavir 900 mg BID + RTV 500 mg BID, n=6
[11] = Tipranavir 900 mg BID alone, n=6
[12] = 600 mg, Tipranavir 600 mg BID alone, n=7
[13] = 900 mg, Tipranavir 900 mg BID alone, n=6
[14] = tipranavir 600 mg BID + ritonavir 100 mg BID vs alone
[15] = tipranavir 600 mg BID + ritonavir 500 mg BID vs alone
[16] = tipranavir 900 mg BID + ritonavir 100 mg BID vs alone
[17] = tipranavir 900 mg BID + ritonavir 500 mg BID vs alone
[18] = Tipranavir SEDDS SEC 1250mg BID + Ritonavir Oral Solution 200mg BID, N=21
[19] = Tipranavir SEDDS SEC 1250mg BID alone, N=22
[20] = both sexes, human, plasma, oral, 1250 mg
[21] = Tipranavir 1350 mg BID + Ritonavir 500 mg BID
[22] = Tipranavir 1350 mg BID alone, steady state
[23] = tipranavir 1350 mg BID + ritonavir 500 mg BID vs tipranavir alone
[24] = delavirdine 400 mg TID + tipranavir 1200 mg BID vs delavirdine alone

effect of delavirdine on the pharmacokinetics of tipranavir ([1]; tipranavir 1200 mg BID + delavirdine 400 mg TID, steady state): no effect
CLPO [2, 6]: 3.35 (2.44-6.07) L/h
Cmin [2, 6]: 3.14 (1.61-12.8) µM
Css [2, 6]: 24.8 (13.7-34.0) µM
CLPO [2, 7]: 2.23 (1.02-4.79) L/h
Cmin [2, 7]: 14.3 (4.70-32.5) µM
Css [2, 7]: 37.2 (17.3-81.0) µM
Cmin ([2]; Tipranavir 600 mg BID + RTV 500 mg BID, n=7, listed as tipranavir): 14.3 µM
CLPO [2, 8]: 31.3 (17.3-88.8) L/h
Cmin [2, 8]: 0.341 (0.165-0.929) µM
Css [2, 8]: 2.70 (0.94-4.79) µM
CLPO [2, 9]: 4.10 (2.45-7.86) L/h
Cmin [2, 9]: 3.62 (1.98-6.95) µM
Css [2, 9]: 30.6 (15.8-50.8) µM
CLPO [2, 10]: 1.64 (1.00-2.82) L/h
Cmin [2, 10]: 22.7 (9.91-63.2) µM
Css [2, 10]: 76.1 (44.1-124.8) µM
CLPO [2, 11]: 32.4 (20.8-53.1) L/h
Cmin [2, 11]: 0.499 (0.160-1.150) µM
Css [2, 11]: 3.88 (2.34-5.98) µM
half-life [2, 12]: 3.6 h
AUC [2, 12]: 32.5 µM·h
Cmax [2, 12]: 11.3 µM
Tmax [2, 12]: 2 h
half-life [2, 13]: 4.2 h
AUC [2, 13]: 46.5 µM·h
Cmax [2, 13]: 14.6 µM
Tmax [2, 13]: 2 h
half-life [2, 6]: 2.3 h
AUC [2, 6]: 297 µM·h
Cmax [2, 6]: 56.8 µM
Tmax [2, 6]: 2 h
half-life [2, 7]: 3.7 h
AUC [2, 7]: 446 µM·h
Cmax [2, 7]: 78.6 µM
Tmax [2, 7]: 2 h
half-life [2, 9]: 1.9 h
AUC [2, 9]: 368 µM·h
Cmax [2, 9]: 68.9 µM
Tmax [2, 9]: 3 h
half-life [2, 10]: 3.5 h
AUC [2, 10]: 913 µM·h
Cmax [2, 10]: 148 µM
Tmax [2, 10]: 2 h
predicted tipranavir concentration (target minimal therapeutic threshold) ([2]; extrapolated to a dose of ritonavir 30 mg BID): 1 µM
lowest median trough tipranavir concentration ([2]; in combination with ritonavir 100 mg BID): exceeded 3 µM
increase of plasma tipranavir concentrations ([2]; ritonavir 100 mg BID vs same dose of tipranavir alone): ~10 fold
increase of median AUC values of tipranavir [2, 14]: approximately 9 fold
increase of median Cmax values [2, 14]: 5 fold
increase of median trough tipranavir concentrations [2, 14]: approximately 9 fold
increase of median AUC values of tipranavir [2, 15]: approximately 14 fold
increase of median Cmax values [2, 15]: 7 fold
increase of median trough tipranavir concentrations [2, 15]: approximately 40 fold
trough concentration ([2]; tipranavir 600 mg with ritonavir 500 mg): exceeding 3 µM
increase of median AUC values of tipranavir [2, 16]: approximately 8 fold
increase of median Cmax values [2, 16]: 5 fold
increase of median trough tipranavir concentrations [2, 16]: approximately 7 fold
increase of median AUC values of tipranavir [2, 17]: approximately 20 fold
increase of median Cmax values [2, 17]: 10 fold
increase of median trough tipranavir concentrations [2, 17]: approximately 45 fold
CLPO [3, 18]: 1.19 (0.47-2.29) L/h
Cmin [3, 18]: 62.1 (11.2-261) µM
Css [3, 18]: 145 (76-371) µM
CLPO [3, 19]: 12.7 (6.1-23.7) L/h
Cmin [3, 19]: 0.82(0.30-2.20) µM
Css [3, 19]: 13.6 (7.3-28.1) µM
AUC [3, 20]: 163 µM·h
Cmax [3, 20]: 56 µM
Tmax [3, 20]: 2 h
half-life ([3]; both sexes, human, plasma, oral, 1250 mg, read-out: t½ (converted)): 5.4 h
increase of tipranavir steady-state concentrations ([3]; ritonavir 200 mg vs same dose (1250 mg BID) of tipranavir alone): more than 10 fold
effect on apparent terminal half-life of tipranavir ([3]; tipranavir 1250 mg BID + ritonavir 200 mg BID): not significantly affected
increase of median Cmax values ([3]; tipranavir 1250 mg BID + ritonavir oral solution 200 mg BID vs tipranavir alone): approximately 5 fold
CLPO [4, 21]: 1.9 (1.2-3.8) L/h
Cmin [4, 21]: 42 (12-84) µM
Css [4, 21]: 100 (49-161) µM
Cmin ([4]; Tipranavir 1350 mg BID + Ritonavir 500 mg BID, listed as tipranavir): 42 µM
CLPO [4, 22]: 31 (11-100) L/h
Cmin [4, 22]: 0.78 (0.34-1.42) µM
Css [4, 22]: 6.1 (1.9-16.8) µM
increase of mean steady-state plasma tipranavir concentrations (Css) [4, 23]: 12 fold
increase of median tipranavir Cmax value in the presence of ritonavir [4, 23]: approximately 5.6 fold
increase of median tipranavir Cmin values [4, 23]: 45 fold
Structure (SMILES): CCC[C@@]1(CCc2ccccc2)CC(O)=C([C@H](CC)c2cccc(NS(=O)(=O)c3ccc(C(F)(F)F)cn3)c2)C(=O)O1 (relative stereo) [Tipranavir, [R-(R*,R*)]-N-[3-[1-[5,6-Dihydro-4-hydroxy-2-oxo-6-(2-phenylethyl)-6-propyl-2H-pyran-3-yl]propyl]phenyl]-5-(trifluoromethyl)-2-pyridinesulfonamide]
effect on apparent terminal half-life of tipranavir ([2]; tipranavir 600 mg BID with concomitant ritonavir): no prolongation of the apparent terminal half-life
effect on apparent terminal half-life of tipranavir ([2]; tipranavir 900 mg BID with concomitant ritonavir): No prolongation of the apparent terminal half-life
effect on tipranavir elimination half-life (t½) [4, 23]: not accompanied by a prolongation of the elimination half-life

decrease of delavirdine AUC by tipranavir ([1]; coadministration with tipranavir): > 95%
median delavirdine AUC value, fold lower [1, 24]: more than 20 fold
median trough delavirdine concentration, fold lower [1, 24]: more than 100 fold
Potential for Clinically Significant Interaction [5]: High (and unfavorable)
Structure (SMILES): CC(C)Nc1cccnc1N1CCN(C(=O)c2cc3cc(NS(C)(=O)=O)ccc3[nH]2)CC1 [Delavirdine]

Source: patent EP1712231A2 (priority 1998, dated 2000)
